≈ marks a conversion by molar mass, not a printed value. Like-named read-outs stand apart in the source and are kept apart here.
Tests used:
K. pneumoniae D11 = experiment: MIC against specific test organism; type: cell-based; conditions: Klebsiella pneumoniae, read-out: Minimum Inhibitory Concentration
Procedure: (§1) In the primary evaluation of the compounds of this invention, the Minimum Inhibitory Concentrations (MIC's) of the compounds were determined by the two-fold serial agar dilution method in Mueller-Hinton agar against 32 strains of test organisms in six groups.
(§2) The test method was as described for Table 1.

Ent. cloacae A9656 = experiment: MIC against specific test organism; type: cell-based; conditions: Enterobacter cloacae, read-out: Minimum Inhibitory Concentration
Procedure: as §1, §2

M. morganii A9553 = experiment: MIC against specific test organism; type: cell-based; conditions: Morganella morganii, read-out: Minimum Inhibitory Concentration
Procedure: as §1, §2

Ser. marcescens A20019 = experiment: MIC against specific test organism; type: cell-based; conditions: Serratia marcescens, read-out: Minimum Inhibitory Concentration
Procedure: as §1, §2

Ps. aeruginosa A9843 = experiment: MIC against specific test organism; type: cell-based; conditions: Pseudomonas aeruginosa, read-out: Minimum Inhibitory Concentration
Procedure: as §1, §2

S. aureus Smith = experiment: MIC against specific test organism; type: cell-based; conditions: Staphylococcus aureus, read-out: Minimum Inhibitory Concentration
Procedure: as §1, §2

Pr. mirabilis A9554 = experiment: MIC against specific test organism; type: cell-based; conditions: Proteus mirabilis, read-out: Minimum Inhibitory Concentration
Procedure: as §1, §2

Ps. aeruginosa A15150 = experiment: MIC against specific test organism; type: cell-based; conditions: Pseudomonas aeruginosa, read-out: Minimum Inhibitory Concentration
Procedure: as §1, §2

E. coli Juhl = experiment: MIC against specific test organism; type: cell-based; conditions: Escherichia coli, read-out: Minimum Inhibitory Concentration
Procedure: as §1, §2

K. pneumoniae A9867 = experiment: MIC against specific test organism; type: cell-based; conditions: Klebsiella pneumoniae; K. pneumoniae A9867, cephalothin-resistant strain; read-out: Minimum Inhibitory Concentration
Procedure: as §1, §2

S. aureus BX-1633-2 = experiment: MIC against specific test organism; type: cell-based; conditions: Staphylococcus aureus, BX16332; S. aureus BX-1633-2, penicillin-resistant strain; read-out: Minimum Inhibitory Concentration
Procedure: as §1, §2

E. coli A15164 = experiment: MIC against specific test organism; type: cell-based; conditions: Escherichia coli; E. coli A15164, cephalothin-resistant strain; read-out: Minimum Inhibitory Concentration
Procedure: as §1, §2

Ps. aeruginosa A20717 = experiment: MIC against specific test organism; type: cell-based; conditions: Pseudomonas aeruginosa, read-out: Minimum Inhibitory Concentration
Procedure: as §1, §2

[1] = system: Penicillinsensitive S. aureus; experiment: MIC, two-fold serial agar dilution in Mueller-Hinton agar, group (G+)-Ia; type: cell-based; conditions: Staphylococcus aureus; (G+)-Ia, penicillin-sensitive S. aureus (5 strains); read-out: Geometric Mean of MIC
Procedure: as §1

[2] = system: M. morganii, Ent. cloacae and Ser. marcescens; experiment: MIC, two-fold serial agar dilution in Mueller-Hinton agar, group (G-)-II; type: cell-based; conditions: read-out: Geometric Mean of MIC
Procedure: as §1
(G-)II: M. morganii (1 strain), Ent. cloacae (2 strains) and Ser.

[3] = system: Penicillinresistant S. aureus; experiment: MIC, two-fold serial agar dilution in Mueller-Hinton agar, group (G+)-Ib; type: cell-based; conditions: Staphylococcus aureus, read-out: Geometric Mean of MIC
Procedure: as §1
(G+)Ib: Penicillinresistant S. aureus (5 strains)

[4] = Mouse blood levels after single intramuscular injection; type: in vivo, mice; conditions: for concentration at 10 min / concentration at 20 min / concentration at 0.5 h / concentration at 40 min / concentration at 50 min / concentration at 1 h / concentration at 1.5 h / concentration at 2 h: read-out: Mouse Blood Level; for concentration at 0.5 h: 30 minutes; for concentration at 1 h: 60 minutes; for concentration at 1.5 h: 90 minutes; for concentration at 2 h: 120 minutes
Procedure: The absorption of some of the preferred compounds were determined in mice following a single intramuscular injection of the test compound (dissolved in 0.1M phosphate buffer; pH 7) at a dosage of 10, 20 or 40 mg/kg. Blood samples were collected from the orbital sinuses into heparinized capillary tubes and assayed in Nutrient Agar (pH 6.6) using E. coli Ess-22-31 as the test organism. The blood levels at various time intervals, the half-life values (t1/2) and the areas under the curve (AUC) are shown in Table 3.

[5] = system: Cephalothinresistant E. coli and Kl. pneumoniae; experiment: MIC, two-fold serial agar dilution in Mueller-Hinton agar, group (G-)-Ib; type: cell-based; conditions: read-out: Geometric Mean of MIC
Procedure: as §1
(G-)Ib: Cephalothinresistant E. coli (3 strains) and Kl. pneumoniae (3

Ps. aeruginosa = experiment: MIC, two-fold serial agar dilution in Mueller-Hinton agar, group (G-)-III; type: cell-based; conditions: Pseudomonas aeruginosa, Ps. aeruginosa (6 strains), read-out: Geometric Mean of MIC
Procedure: as §1

[6] = system: Cephalothinsensitive E. coli, Kl. pneumoniae and Pr. mirabilis; experiment: MIC, two-fold serial agar dilution in Mueller-Hinton agar, group (G-)-Ia; type: cell-based; conditions: (G-)-Ia, cephalothin-sensitive E. coli (2), Kl. pneumoniae (1), Pr. mirabilis (2 strains); read-out: Geometric Mean of MIC
Procedure: as §1
(G-)Ia: Cephalothinsensitive E. coli (2 strains), Kl. pneumoniae (1
strain) and Pr. mirabilis (2 strains)

Work on CSc1scc[n+]1CC1=C(C(=O)[O-])N2C(=O)C(NC(=O)/C(=N\OC3(C(=O)O)CCC3)c3csc(N)n3)[C@H]2SC1 (stereo partly shown) [Example 2, 7-[(Z)-2-(2-Aminothiazol-4-yl)-2-(1-carboxycyclobut-1-oxyimino)acetamido]-3-(2-methylthiothiazolio)methyl-3-cephem-4-carboxylate] yielded an MIC (K. pneumoniae D11) of 0.05 µg/mL (≈ 0.0819 µM), an MIC (Ent. cloacae A9656) of 0.05 µg/mL (≈ 0.0819 µM) and an MIC (M. morganii A9553) of 0.2 µg/mL (≈ 0.327 µM). It also gave an MIC (Ser. marcescens A20019) of 0.1 µg/mL (≈ 0.164 µM), an MIC (Ps. aeruginosa A9843) of 1.6 µg/mL (≈ 2.62 µM) and an MIC (S. aureus Smith) of 1.6 µg/mL (≈ 2.62 µM). The MIC (Pr. mirabilis A9554) was 0.025 µg/mL (≈ 0.0409 µM), the MIC (Ps. aeruginosa A15150) was 0.8 µg/mL (≈ 1.31 µM) and the MIC (E. coli Juhl) was 0.1 µg/mL (≈ 0.164 µM). For the same compound, the MIC (K. pneumoniae A9867) was 3.1 µg/mL (≈ 5.08 µM), the MIC (S. aureus BX-1633-2) was 3.1 µg/mL (≈ 5.08 µM) and the MIC (E. coli A15164) was 0.4 µg/mL (≈ 0.655 µM). For the same compound, the MIC (Ps. aeruginosa A20717) was 6.3 µg/mL (≈ 10.3 µM), the MIC [1] was 0.92 µg/mL (≈ 1.51 µM) and the MIC ([2]; (G-)-II, M. morganii (1), Ent. cloacae (2), Ser. marcescens (2 strains)) was 0.2 µg/mL (≈ 0.327 µM). For the same compound, the MIC [3] was 2.7 µg/mL (≈ 4.42 µM), the AUC ([4]; 10 mg/kg im) was 3600 ng·h/mL and the half-life ([4]; 10 mg/kg im) was 17 min. It also gave a concentration at 10 min ([4]; 10 mg/kg im) of 8400 ng/mL, a concentration at 20 min ([4]; 10 mg/kg im) of 5500 ng/mL and a concentration at 0.5 h ([4]; 10 mg/kg im) of 3700 ng/mL. For the same compound, the concentration at 40 min ([4]; 10 mg/kg im) was < 1600 ng/mL, the AUC ([4]; 20 mg/kg im) was 9000 ng·h/mL and the half-life ([4]; 20 mg/kg im) was 11 min. It also gave a concentration at 10 min ([4]; 20 mg/kg im) of 22000 ng/mL, a concentration at 20 min ([4]; 20 mg/kg im) of 15000 ng/mL and a concentration at 0.5 h ([4]; 20 mg/kg im) of 8600 ng/mL. The concentration at 40 min ([4]; 20 mg/kg im) was 5700 ng/mL, the concentration at 50 min ([4]; 20 mg/kg im) was 2400 ng/mL and the concentration at 1 h ([4]; 20 mg/kg im) was < 1600 ng/mL. For the same compound, the AUC ([4]; 40 mg/kg im) was 16000 ng·h/mL, the half-life ([4]; 40 mg/kg im) was 11 min and the concentration at 10 min ([4]; 40 mg/kg im) was 43000 ng/mL. For the same compound, the concentration at 20 min ([4]; 40 mg/kg im) was 27000 ng/mL, the concentration at 0.5 h ([4]; 40 mg/kg im) was 14000 ng/mL and the concentration at 40 min ([4]; 40 mg/kg im) was 7500 ng/mL. The concentration at 50 min ([4]; 40 mg/kg im) was 3800 ng/mL, the concentration at 1 h ([4]; 40 mg/kg im) was 2300 ng/mL and the concentration at 1.5 h ([4]; 40 mg/kg im) was < 1600 ng/mL. For the same compound, the MIC [5] was 0.4 µg/mL (≈ 0.655 µM), the MIC (Ps. aeruginosa) was 1.8 µg/mL (≈ 2.95 µM) and the MIC [6] was 0.025 µg/mL (≈ 0.0409 µM).

CO/N=C(\C(=O)NC1C(=O)N2C(C(=O)[O-])=C(C[n+]3ccsc3SC)CS[C@H]12)c1csc(N)n1 (stereo partly shown) [Example 3, 7-[(Z)-2-(2-Aminothiazol-4-yl)-2-(methoxyimino)acetamido]-3-(2-methylthiothiazolio)methyl-3-cephem-4-carboxylate] gave an MIC (K. pneumoniae D11) of 0.025 µg/mL (≈ 0.0475 µM), an MIC (Ent. cloacae A9656) of 0.05 µg/mL (≈ 0.0949 µM) and an MIC (M. morganii A9553) of 0.2 µg/mL (≈ 0.38 µM). It also gave an MIC (Ser. marcescens A20019) of 0.025 µg/mL (≈ 0.0475 µM), an MIC (Ps. aeruginosa A9843) of 3.1 µg/mL (≈ 5.89 µM) and an MIC (S. aureus Smith) of 0.4 µg/mL (≈ 0.76 µM). It also gave an MIC (Pr. mirabilis A9554) of 0.05 µg/mL (≈ 0.0949 µM), an MIC (Ps. aeruginosa A15150) of 0.8 µg/mL (≈ 1.52 µM) and an MIC (E. coli Juhl) of 0.025 µg/mL (≈ 0.0475 µM). It also gave an MIC (K. pneumoniae A9867) of 0.8 µg/mL (≈ 1.52 µM), an MIC (S. aureus BX-1633-2) of 0.8 µg/mL (≈ 1.52 µM) and an MIC (E. coli A15164) of 0.1 µg/mL (≈ 0.19 µM). It also gave an MIC (Ps. aeruginosa A20717) of 6.3 µg/mL (≈ 12 µM), an MIC [1] of 0.23 µg/mL (≈ 0.437 µM) and an MIC [2] of 0.14 µg/mL (≈ 0.266 µM). It also gave an MIC [3] of 0.8 µg/mL (≈ 1.52 µM), an AUC ([4]; 10 mg/kg im) of 18000 ng·h/mL and a half-life ([4]; 10 mg/kg im) of 47 min. The concentration at 10 min ([4]; 10 mg/kg im) was 14000 ng/mL, the concentration at 20 min ([4]; 10 mg/kg im) was 14000 ng/mL and the concentration at 0.5 h ([4]; 10 mg/kg im) was 12000 ng/mL. It also gave a concentration at 40 min ([4]; 10 mg/kg im) of 10000 ng/mL, a concentration at 50 min ([4]; 10 mg/kg im) of 9800 ng/mL and a concentration at 1 h ([4]; 10 mg/kg im) of 6800 ng/mL. The concentration at 1.5 h ([4]; 10 mg/kg im) was 5200 ng/mL, the concentration at 2 h ([4]; 10 mg/kg im) was 3200 ng/mL and the AUC ([4]; 20 mg/kg im) was 29000 ng·h/mL. The half-life ([4]; 20 mg/kg im) was 46 min, the concentration at 10 min ([4]; 20 mg/kg im) was 24000 ng/mL and the concentration at 20 min ([4]; 20 mg/kg im) was 22000 ng/mL. The concentration at 0.5 h ([4]; 20 mg/kg im) was 20000 ng/mL, the concentration at 40 min ([4]; 20 mg/kg im) was 17000 ng/mL and the concentration at 50 min ([4]; 20 mg/kg im) was 13000 ng/mL. For the same compound, the concentration at 1 h ([4]; 20 mg/kg im) was 11000 ng/mL, the concentration at 1.5 h ([4]; 20 mg/kg im) was 9500 ng/mL and the concentration at 2 h ([4]; 20 mg/kg im) was 4500 ng/mL. It also gave an AUC ([4]; 40 mg/kg im) of 60000 ng·h/mL, a half-life ([4]; 40 mg/kg im) of 54 min and a concentration at 10 min ([4]; 40 mg/kg im) of 48000 ng/mL. It also gave a concentration at 20 min ([4]; 40 mg/kg im) of 36000 ng/mL, a concentration at 0.5 h ([4]; 40 mg/kg im) of 32000 ng/mL and a concentration at 40 min ([4]; 40 mg/kg im) of 32000 ng/mL. The concentration at 50 min ([4]; 40 mg/kg im) was 24000 ng/mL, the concentration at 1 h ([4]; 40 mg/kg im) was 20000 ng/mL and the concentration at 1.5 h ([4]; 40 mg/kg im) was 15000 ng/mL. For the same compound, the concentration at 2 h ([4]; 40 mg/kg im) was 10000 ng/mL, the MIC [5] was 0.15 µg/mL (≈ 0.285 µM) and the MIC (Ps. aeruginosa) was 2 µg/mL (≈ 3.8 µM). The MIC [6] was 0.022 µg/mL (≈ 0.0418 µM).

From patent publication US4507487A, “Chemical compounds” (Bristol-Myers Company, priority 1983, dated 1985)
